Entries after “also recorded” stand apart in the source; their conditions may differ. Read-outs that look alike come from different tables or passages of the source.
Assays:
[1] = oral; cited from earlier work
[2] = system: rat; test: Behavior analysis, rat; settings: 4 hours observation
Experimental: (§1) The chemical to be tested was administered orally, and observations of the behaviors of the rats were carried out for 4 hours after administration of the chemical.
One group consisted of three rats.

[3] = system: angina pectoris patients; test: Clinical test: bicycle ergometer exercise test in angina pectoris patients, double blind cross over; format: in vivo, human; design: Change in heart rate b)-a): unit not given here; settings: for Change in heart rate b)-a) / Exercise time / a) Heart rate before exercise / b) Heart rate after exercise: compound A 5 mg twice daily, PROPRANOLOL 40 mg × 2, third day; for b) Heart rate after exercise: in beats/min (unit assumed)
Experimental: A test was then conducted on the third day 3 hours after the first administration. […] The test was carried out by the double blind method with a cross over test having a rest period of 10 days. The test method consisted of an exercise test utilizing a bicycle ergometer. After measuring the heart rates of the patients before starting the test, the patients were made to pedal the bicycle ergometer until they were seized with an attack of anginal pain, the effectiveness of the chemicals being judged by the time up to the attack and the heart rate at that time.

[4] = system: mouse; test: Behavior analysis, mouse (simplified Irwin's multidimensional method); settings: 4 hours observation
From the text: (§2) The effects of chemicals on the behavior of mouse was examined by a simplified method of Irwin's multidimensional behavior analysis method.

[5] = system: rat; settings: in vivo, 240 min
Experimental: as §1
One group consisted of three rats.

[6] = system: rat; test: Degree of safety (ratio of side reaction or lethal dosage to effective dosage), rat; settings: in vivo, po
[7] = system: heart rate; test: Heart rate drop at the dosage required for manifestation of beta-adrenergic blocking activity, rat; format: in vivo
[8] = system: rat; settings: orally
[9] = system: heart rate; test: Heart rate drop at the dosage required for manifestation of beta-adrenergic blocking activity, dog; format: in vivo
[10] = system: beta-adrenergic (heart rate increase due to ISOPROTERENOL); test: Beta-adrenergic blocking activity in the case of intravenous injection, rat (antagonism to heart rate increase due to ISOPROTERENOL); format: in vivo, rat (Wistar)
Experimental: 1. Beta-adrenergic blocking activity in the case of intravenous injection (Antagonism to heart rate increase due to ISOPROTERENOL)
a. Male rats of Wistar strain weighing ca. 300 grams were anesthetized with PENTOBARBITAL-Na (60 mg/kg i.p.), after which they are secured in a supine position. The electrocardiogram was registered in the second lead, on a polygraph. ISOPROTERENOL (0.1 μg/kg) was administered through the left femoral vein at 7-minute intervals.
The heart rate increase for the first two times was averaged and used as control.
The antagonistic chemical was intravenously injected from the third time the ISOPROTERENOL was administered, the administration being performed cumulatively and sequentially in the amounts of respectively 6.25, 25, 100 . . . μg/kg invariably at a point 2 minutes before each administration of ISOPROTERENOL until the effects thereof practically disappeared.

[11] = system: dog; settings: orally
[12] = system: mouse; settings: in vivo, 240 min
From the text: as §2

[13] = system: heart rate; test: Effect on heart rate (general statements); format: in vivo
[14] = in vivo
[15] = system: dog; test: Degree of safety (ratio of side reaction or lethal dosage to effective dosage), dog; settings: in vivo, po
[16] = system: heart rate; test: Change in heart rate at the dosage required for manifestation of the beta-adrenergic blocking activity (Table 2); format: in vivo
[17] = system: beta-adrenergic; test: Beta-adrenergic blocking activity of metabolites (Table 2); format: in vivo; settings: for Beta-adrenergic blocking activity compared with PROPRANOLOL, in words: in vivo

CC(C)NCC(O)COc1cccc2ccccc12 (stereo not shown) [PROPRANOLOL, 1-naphthoxy-3-isopropylamino-2-propanol, reference compound]
Metabolized when orally administered [1]: 90% | Dose at which effects appeared from the standpoints of behavior analysis (PO) [2]: 25 mg | Change in heart rate b)-a) ([3]; Case No. 1): 35 | Exercise time ([3]; Case No. 1): 134 s | a) Heart rate before exercise ([3]; Case No. 1): 74 beats/min | b) Heart rate after exercise ([3]; Case No. 1): 109 | Change in heart rate b)-a) ([3]; Case No. 2): 27 | Exercise time ([3]; Case No. 2): 146 s | a) Heart rate before exercise ([3]; Case No. 2): 69 beats/min | b) Heart rate after exercise ([3]; Case No. 2): 96 | Change in heart rate b)-a) ([3]; Case No. 3): 27 | Exercise time ([3]; Case No. 3): 102 s | a) Heart rate before exercise ([3]; Case No. 3): 75 beats/min | b) Heart rate after exercise ([3]; Case No. 3): 102 | Change in heart rate b)-a) ([3]; Mean of 3 cases): 29.7 | Exercise time ([3]; Mean of 3 cases): 127.3 s | a) Heart rate before exercise ([3]; Mean of 3 cases): 72.7 beats/min | b) Heart rate after exercise ([3]; Mean of 3 cases): 102.3 | Suppression of the heart rate vs placebo, in words ([3]; as compared with the placebo): marked suppression of the heart rate | Dose at which effects appeared from the standpoints of behavior analysis (PO) [4]: 100 mg

Cc1cccc(OCC(O)CNC(C)(C)C)c1C (stereo not shown) [compound A, 1-(2',3'-dimethylphenoxy)-3-tert. butylamino-2-propanol]
Change in heart rate b)-a) ([3]; Case No. 1): 17 | Exercise time ([3]; Case No. 1): 187 s | a) Heart rate before exercise ([3]; Case No. 1): 81 beats/min | b) Heart rate after exercise ([3]; Case No. 1): 98 | Change in heart rate b)-a) ([3]; Case No. 2): 20 | Exercise time ([3]; Case No. 2): 203 s | a) Heart rate before exercise ([3]; Case No. 2): 76 beats/min | b) Heart rate after exercise ([3]; Case No. 2): 96 | Change in heart rate b)-a) ([3]; Case No. 3): 19 | Exercise time ([3]; Case No. 3): 144 s | a) Heart rate before exercise ([3]; Case No. 3): 84 beats/min | b) Heart rate after exercise ([3]; Case No. 3): 103 | Change in heart rate b)-a) ([3]; Mean of 3 cases): 18.7 | Exercise time ([3]; Mean of 3 cases): 178.0 s | a) Heart rate before exercise ([3]; Mean of 3 cases): 80.3 beats/min | b) Heart rate after exercise ([3]; Mean of 3 cases): 99.0 | Exercise time up to attack with anginal pains vs placebo, in words ([3]; as compared with the placebo): increases the exercise time up to the time the attack with anginal pains takes place | Increase in the heart rate due to the exercise vs placebo, in words ([3]; as compared with the placebo): suppresses the increase in the heart rate due to the exercise | Suppression of the heart rate vs placebo, in words ([3]; as compared with the placebo): practically no suppression of the heart rate | Effectiveness compared with PROPRANOLOL, in words ([3]; human, in vivo): far greater than that of PROPRANOLOL | Dose at which effects appeared from the standpoints of behavior analysis (PO) [5]: 50 mg | Degree of safety, times that of PROPRANOLOL [6]: about 14 times | Heart rate % drop at the dosage required for manifestation of beta-adrenergic blocking activity [ED50] ([7]; PO): 4% | Heart rate drop at the dosage required for manifestation of beta-adrenergic blocking activity [ED50] ([7]; PO): 15 No/min. | Heart rate % drop at the dosage required for manifestation of beta-adrenergic blocking activity [ED50] ([7]; iv): 15% | Heart rate drop at the dosage required for manifestation of beta-adrenergic blocking activity [ED50] ([7]; iv): 55 No/min. | LD50 [8]: 580 mg | Heart rate % drop at the dosage required for manifestation of beta-adrenergic blocking activity [ED50] ([9]; PO): 2% | Heart rate drop at the dosage required for manifestation of beta-adrenergic blocking activity [ED50] ([9]; PO): 3 No/min. | Heart rate % drop at the dosage required for manifestation of beta-adrenergic blocking activity [ED50] ([9]; iv): 16% | Heart rate drop at the dosage required for manifestation of beta-adrenergic blocking activity [ED50] ([9]; iv): 23 No/min. | Relative effectiveness iv (beta-adrenergic blocking activity, PROPRANOLOL = 1.0) [10]: 2 | LD50 [11]: 300 mg | Dose at which effects appeared from the standpoints of behavior analysis (PO) [12]: 200 mg | Effect on heart rate, in words ([13]; injection): high decrease in heart rate; also recorded: a drop in heart rate likewise takes place | Effect on heart rate, in words ([13]; oral / intestinal absorption route): the normal heart rate is hardly affected at all; also recorded: practically no change in heart rate; also recorded: without hardly any effect on the heart rate | Degree of safety compared with the other similar compounds [14]: 7-20 times | Degree of safety, times that of PROPRANOLOL [15]: more than 16 times

Cc1c(O)ccc(OCC(O)CNC(C)(C)C)c1C (stereo not shown) [compound B]
Action of suppressing the heart rate compared with PROPRANOLOL, in words ([16]; in vivo): lower action of suppressing the heart rate and lesser side reactions | Change in heart rate at the dosage required for manifestation of the beta-adrenergic blocking activity ([16]; in vivo): +10 No./min. | Change in heart rate, % increase, at the dosage required for manifestation of the beta-adrenergic blocking activity ([16]; increase): 3% | Change in heart rate by injection, in words [16]: small | Relative beta-adrenergic blocking effectiveness as compared to PROPRANOLOL ([17]; i.v.): 5.5 | Beta-adrenergic blocking activity compared with PROPRANOLOL, in words [17]: higher beta-adrenergic blocking activity than PROPRANOLOL | Relative beta-adrenergic blocking effectiveness as compared to PROPRANOLOL ([17]; p.o.): 2.5

Cc1c(CO)cccc1OCC(O)CNC(C)(C)C (stereo not shown) [compound C]
Action of suppressing the heart rate compared with PROPRANOLOL, in words ([16]; in vivo): lower action of suppressing the heart rate and lesser side reactions | Change in heart rate by injection, in words [16]: small | Relative beta-adrenergic blocking effectiveness as compared to PROPRANOLOL ([17]; i.v.): 4.5 | Beta-adrenergic blocking activity compared with PROPRANOLOL, in words [17]: higher beta-adrenergic blocking activity than PROPRANOLOL | Relative beta-adrenergic blocking effectiveness as compared to PROPRANOLOL ([17]; p.o.): 4.0
